Each block holds one compound with its values, some of them ahead of it.
Target: USP7 (Homo sapiens (Human), UniProt Q93009)
Test: USP7 Biochemical IC50 Assay
Conditions: FLAG-USP7; enzyme and compound incubated 30 min at room temp; TAMRA labelled peptide-ubiquitin fluorescence polarisation substrate; read after 2 hr; read-out: IC50 range
Experimental: The USP7 construct was PCR amplified and cloned into a pFLAG-CMV-6a vector (Sigma-Aldrich) with an N-terminal FLAG tag. HEK293T cells were transfected with FLAG-USP7 using TransIT-LT1 transfection reagent (Mirus) according to the manufacturer's instructions. Cells were harvested 40 hours after transfection. […] The resin was washed two times with low salt buffer plus protease inhibitors (complete mini, Roche) and phosphatase inhibitors (PhosSTOP mini, Roche) and one time with high salt buffer (20 mM Tris, pH 7.5, 500 mM NaCl, 0.5 mM EDTA, 5 mM beta-mercaptoethanol, protease inhibitors (complete mini, Roche) and phosphatase inhibitors (PhosSTOP mini, Roche). To elute the bound USP7, elution buffer (10 mM Tris, pH 7.5, 150 mM NaCl, 0.5 mM EDTA, 10% glycerol, 0.5% NP40, 5 mM beta-mercaptoethanol, 0.15 mg/ml 3×FLAG peptide (Sigma-Aldrich)) was added to the resin and incubated at 4° C. for 2.5 hours rotating. The resin was centrifuged at 4000 rpm for 30 seconds, and the supernatant containing purified FLAG-USP7 was removed and stored at −80° C.
USP7 Biochemical IC50 Assay
A typical 8-point dilution series would be 100, 30, 10, 3, 1, 0.3, 0.1, 0.03 μM final. […] Either 1 μl of 50% DMSO or diluted compound was added to the plate. USP7 was diluted in reaction buffer (20 mM Tris, pH 7.5, 100 mM NaCl, 0.05% Tween 20, 0.5 mg/ml BSA, 5 mM—beta mercaptoethanol) to the equivalent of 0.0025 μl/well and 10 μl of diluted USP7 was added to the compound. Enzyme and compound were incubated for 30 min at room temp. Reactions were initiated by the addition of 50 nM of TAMRA labelled peptide linked to ubiquitin via an iso-peptide bond as fluorescence polarisation substrate. Reactions were read immediately after addition of substrate and following a 2 hr incubation at room temperature. Readings were performed on a Pherastar Plus (BMG Labtech). λ Excitation 540 nm; λ Emission 590 nm.

USP7, sequence (Q93009 whole entry): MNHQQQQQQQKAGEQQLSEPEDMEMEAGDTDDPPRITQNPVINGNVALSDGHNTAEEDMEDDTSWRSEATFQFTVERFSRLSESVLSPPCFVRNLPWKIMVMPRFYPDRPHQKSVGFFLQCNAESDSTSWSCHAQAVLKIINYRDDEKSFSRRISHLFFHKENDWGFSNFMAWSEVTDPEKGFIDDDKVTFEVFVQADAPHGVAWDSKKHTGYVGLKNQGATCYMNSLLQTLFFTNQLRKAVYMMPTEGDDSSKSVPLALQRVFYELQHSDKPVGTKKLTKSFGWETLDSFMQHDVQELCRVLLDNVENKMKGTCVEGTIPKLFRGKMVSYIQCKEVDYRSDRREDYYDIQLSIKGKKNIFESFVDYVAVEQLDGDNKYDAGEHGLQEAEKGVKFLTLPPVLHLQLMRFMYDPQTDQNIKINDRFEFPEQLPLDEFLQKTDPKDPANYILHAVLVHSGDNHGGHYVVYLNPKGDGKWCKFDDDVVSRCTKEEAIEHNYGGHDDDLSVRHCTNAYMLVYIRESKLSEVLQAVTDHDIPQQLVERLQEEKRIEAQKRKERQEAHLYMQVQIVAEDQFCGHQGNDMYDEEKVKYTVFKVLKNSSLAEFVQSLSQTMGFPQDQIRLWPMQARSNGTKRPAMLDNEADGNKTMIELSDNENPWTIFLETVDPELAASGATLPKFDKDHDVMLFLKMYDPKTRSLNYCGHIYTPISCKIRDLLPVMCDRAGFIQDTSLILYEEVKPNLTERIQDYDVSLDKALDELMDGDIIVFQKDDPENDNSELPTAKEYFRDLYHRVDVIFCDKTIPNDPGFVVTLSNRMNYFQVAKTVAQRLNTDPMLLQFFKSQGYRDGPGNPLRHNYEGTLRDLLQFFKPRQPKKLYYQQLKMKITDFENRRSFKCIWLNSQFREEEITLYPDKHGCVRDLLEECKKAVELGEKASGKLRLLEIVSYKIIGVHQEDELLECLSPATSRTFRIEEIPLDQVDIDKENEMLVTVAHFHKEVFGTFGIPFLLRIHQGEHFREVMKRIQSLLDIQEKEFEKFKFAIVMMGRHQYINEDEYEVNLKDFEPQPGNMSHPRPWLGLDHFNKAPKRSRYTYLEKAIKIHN

Compound: N#CN1Cc2c(Nc3ccccn3)nn(-c3ccc(C(N)=O)cc3)c2C1 [Example 33, 4-(5-Cyano-3-(pyridin-2-ylamino)-5,6-dihydropyrrolo[3,4-c]pyrazol-1(4H)-yl)benzamide]
IC50: 10 to 30 µM

Compound: N#CN1Cc2cnn(-c3cc(C(N)=O)n[nH]3)c2C1 [Example 28, 5-(5-Cyano-5,6-dihydropyrrolo[3,4-c]pyrazol-1(4H)-yl)-1H-pyrazole-3-carboxamide]
IC50: 10 to 30 µM

Compound: Cc1ccc(F)c(-c2c3c(nn2C)CN(C#N)C3)c1 [Example 61, 3-(2-fluoro-5-methylphenyl)-2-methyl-2,6-dihydropyrrolo[3,4-c]pyrazole-5(4H)-carbonitrile]
IC50: 10 to 30 µM

Compound: COc1ccc(Cl)cc1-c1n[nH]c2c1CN(C#N)C2 [Example 77, 3-(5-Chloro-2-methoxyphenyl)-4,6-dihydropyrrolo[3,4-c]pyrazole-5(4H)-carbonitrile]
IC50: < 10 µM

Compound: N#CN1Cc2cnn(-c3cccc(C(=O)NCc4ccccc4)c3)c2C1 [Example 11, N-Benzyl-3-(5-cyano-5,6-dihydropyrrolo[3,4-c]pyrazol-1(4H)-yl)benzamide]
IC50: 10 to 30 µM

Compound: COc1ccc(-n2ncc3c2CN(C#N)C3)cc1 [Example 1, 1-(4-Methoxyphenyl)-4,6-dihydropyrrolo[3,4-c]pyrazole-5(1H)-carbonitrile]
IC50: 10 to 30 µM

Compound: N#CN1Cc2cnn(-c3cc(-c4ccccc4)n[nH]3)c2C1 [Example 20, 1-(3-Phenyl-1H-pyrazol-5-yl)-4,6-dihydropyrrolo[3,4-c]pyrazole-5(1H)-carbonitrile]
IC50: 10 to 30 µM

Compound: Cn1nccc1-c1n[nH]c2c1CN(C#N)C2 [Example 39, 3-(1-Methyl-1H-pyrazol-5-yl)-4,6-dihydropyrrolo[3,4-c]pyrazole-5(1H)-carbonitrile]
IC50: 10 to 30 µM

Compound: N#CN1Cc2[nH]nc(-c3cc(OC(F)(F)F)ccc3Cl)c2C1 [Example 44, 3-(2-Chloro-5-(trifluoro-methoxy)phenyl)-4,6-dihydropyrrolo[3,4-c]pyrazole-5(1H)-carbonitrile]
IC50: < 10 µM

Compound: N#CN1Cc2c(-c3ccccc3)nn(Cc3ccccc3)c2C1 [Example 24, 1-Benzyl-3-phenyl-4,6-dihydropyrrolo[3,4-c]pyrazole-5(1H)-carbonitrile]
IC50: 10 to 30 µM

Compound: N#CN1Cc2cnn(-c3cccc(NS(=O)(=O)C4CC4)c3)c2C1 [Example 78, N-(3-(5-Cyano-5,6-dihydropyrrolo[3,4-c]pyrazol-1(4H)-yl)phenyl) cyclopropanesulfonamide]
IC50: 10 to 30 µM

Compound: CNC(=O)c1cc(-n2ncc3c2CN(C#N)C3)ccc1OC [Example 18, 5-(5-Cyano-5,6-dihydropyrrolo[3,4-c]pyrazol-1(4H)-yl)-2-methoxy-N-methylbenzamide]
IC50: 30 to 100 µM

Compound: Cc1ccc(F)c(-c2n[nH]c3c2CN(C#N)C3)c1 [Example 27, 3-(2-Fluoro-5-methylphenyl)-4,6-dihydropyrrolo[3,4-c]pyrazole-5(1H)-carbonitrile]
IC50: < 10 µM

Compound: CC(NC(=O)c1cccc(-n2ncc3c2CN(C#N)C3)c1)c1ccccc1 (centres unmarked) [Example 12, 3-(5-Cyano-5,6-dihydropyrrolo[3,4-c]pyrazol-1(4H)-yl)-N-(1-phenylethyl)benzamide]
IC50: 10 to 30 µM

Next, values leading:

IC50: < 10 µM
Compound: N#CN1Cc2[nH]nc(CNC(=O)c3cn4cc(Cl)ccc4n3)c2C1 [Example 65, 6-Chloro-N-((5-cyano-1,4,5,6-tetrahydropyrrolo[3,4-c]pyrazol-3-yl)methyl)-imidazo[1,2-a]pyridine-2-carboxamide]

IC50: < 10 µM
Compound: N#CN1Cc2cnn(-c3cnn(-c4ccccc4)c3)c2C1 [Example 8, 1-(1-Phenyl-1H-pyrazol-4-yl)-4,6-dihydropyrrolo[3,4-c]pyrazole-5(1H)-carbonitrile]

IC50: < 10 µM
Compound: COc1ccc(-c2n[nH]c3c2CN(C#N)C3)cn1 [Example 46, 3-(6-Methoxypyridin-3-yl)-4,6-dihydro-pyrrolo[3,4-c]pyrazole-5(1H)-carbonitrile]

IC50: < 10 µM
Compound: N#CN1Cc2[nH]nc(-c3ccccc3F)c2C1 [Example 58, 3-(2-Fluorophenyl)-4,6-dihydropyrrolo[3,4-c]pyrazole-5(1H)-carbonitrile]

IC50: < 10 µM
Compound: CCc1ccc(OC)c(-c2n[nH]c3c2CN(C#N)C3)c1 [Example 64, 3-(5-Ethyl-2-methoxyphenyl)-4,6-dihydropyrrolo[3,4-c]pyrazole-5(1H)-carbonitrile]

IC50: < 10 µM
Compound: COc1ccc(C(C)C)cc1-c1nn(C)c2c1CN(C#N)C2 [Example 62, 3-(5-Isopropyl-2-methoxyphenyl)-1-methyl-4,6-dihydropyrrolo[3,4-c]pyrazole-5(1H)-carbonitrile]

IC50: < 10 µM
Compound: CN1CCN(c2cccc(-c3n[nH]c4c3CN(C#N)C4)c2)CC1 [Example 71, 3-(3-(4-Methylpiperazin-1-yl)phenyl)-4,6-dihydropyrrolo[3,4-c]pyrazole-5(1H)-carbonitrile]

IC50: < 10 µM
Compound: Cn1ncc2cc(-c3n[nH]c4c3CN(C#N)C4)ccc21 [Example 52, 3-(1-Methyl-1H-indazol-5-yl)-4,6-dihydropyrrolo[3,4-c]pyrazole-5(1H)-carbonitrile]

IC50: < 10 µM
Compound: CC(C)Oc1ccc(F)cc1-c1n[nH]c2c1CN(C#N)C2 [Example 48, 3-(5-Fluoro-2-isopropoxyphenyl)-4,6-dihydropyrrolo[3,4-c]pyrazole-5(1H)-carbonitrile]

IC50: < 10 µM
Compound: N#CN1Cc2[nH]nc(-c3ccc(N4CCOCC4)cc3)c2C1 [Example 72, 3-(4-Morpholinophenyl)-4,6-dihydropyrrolo[3,4-c]pyrazole-5(1H)-carbonitrile]

IC50: < 10 µM
Compound: N#CN1Cc2[nH]nc(-c3cccc(S(=O)(=O)NC4CC4)c3)c2C1 [Example 55, 3-(5-Cyano-1,4,5,6-tetrahydropyrrolo[3,4-c]pyrazol-3-yl)-N-cyclopropylbenzene-sulfonamide]

IC50: < 10 µM
Compound: CN(C)S(=O)(=O)c1cccc(-c2n[nH]c3c2CN(C#N)C3)c1 [Example 47, 3-(5-Cyano-1,4,5,6-tetrahydropyrrolo[3,4-c]pyrazol-3-yl)-N,N-dimethylbenzene-sulfonamide]

IC50: < 10 µM
Compound: N#CN1Cc2[nH]nc(-c3ccccc3)c2C1 [Example 29, 3-Phenyl-4,6-dihydropyrrolo[3,4-c]pyrazole-5(1H)-carbonitrile]

IC50: < 10 µM
Compound: Cc1cc(-c2n[nH]c3c2CN(C#N)C3)ccc1N1CCN(C)CC1 [Example 74, 3-(3-Methyl-4-(4-methylpiperazin-1-yl)phenyl)-4,6-dihydro-pyrrolo[3,4-c]pyrazole-5(1H)-carbonitrile]

IC50: < 10 µM
Compound: N#CN1Cc2cnn(-c3n[nH]c4ccccc34)c2C1 [Example 19, 1-(1H-Indazol-3-yl)-4,6-dihydropyrrolo[3,4-c]pyrazole-5(1H)-carbonitrile]

IC50: < 10 µM
Compound: N#CN1Cc2[nH]nc(-c3ccc(C(=O)NCc4ccccc4)cc3)c2C1 [Example 49, N-Benzyl-4-(5-cyano-1,4,5,6-tetrahydropyrrolo[3,4-c]pyrazol-3-yl)benzamide]

IC50: < 10 µM
Compound: N#CN1Cc2[nH]nc(CNC(=O)c3cc(-c4ccccc4)n[nH]3)c2C1 [Example 34, N-((5-Cyano-1,4,5,6-tetrahydropyrrolo[3,4-c]pyrazol-3-yl)methyl)-3-phenyl-1H-pyrazole-5-carboxamide]

IC50: < 10 µM
Compound: N#CN1Cc2[nH]nc(-c3ccc(C(=O)NCc4ccccc4)cc3F)c2C1 [Example 79, N-Benzyl-4-(5-cyano-1,4,5,6-tetrahydropyrrolo[3,4-c]pyrazol-3-yl)-3-fluorobenzamide]
